Active and inactive are the calls of the source. No cut-off for these calls is given here.
Key:
[1] = test system: Elatine triandra; assay: Post-emergence herbicidal activity against Elatine triandra assessed as bleaching of stem/leaf parts; format: functional, organism-based; note: test concentration or dose not given here
[2] = test system: Ammannia multiflora; assay: Post-emergence herbicidal activity against Ammannia multiflora assessed as bleaching of stem/leaf parts; format: functional, organism-based
[3] = test system: Rotala indica; assay: Post-emergence herbicidal activity against Rotala indica assessed as bleaching of stem/leaf parts; format: functional, organism-based
[4] = test system: Lindernia procumbens; assay: Post-emergence herbicidal activity against Lindernia procumbens assessed as bleaching of stem/leaf parts; format: functional, organism-based; note: test concentration or dose not given here
[5] = test system: Schoenoplectiella juncoides; assay: Post-emergence herbicidal activity against Schoenoplectiella juncoides assessed as bleaching of stem/leaf parts; format: functional, organism-based; note: test concentration or dose not given here
[6] = test system: Ammannia multiflora; assay: Pre-emergence herbicidal activity against Ammannia multiflora at 500 g a.i/ha measured after 14 days; format: functional, organism-based
[7] = test system: Elatine triandra; assay: Pre-emergence herbicidal activity against Elatine triandra at 500 g a.i/ha measured after 14 days; format: functional, organism-based
[8] = test system: Oryza sativa; assay: Phytotoxicity against Oryza sativa cv. Koshihikari (rice) at 500 g a.i/ha measured after 14 days; format: organism-based; conditions: in vivo, 336 h
[9] = test system: Rotala indica; assay: Pre-emergence herbicidal activity against Rotala indica at 500 g a.i/ha measured after 14 days; format: functional, organism-based
[10] = test system: Lindernia procumbens; assay: Pre-emergence herbicidal activity against Lindernia procumbens at 500 g a.i/ha measured after 14 days; format: functional, organism-based
[11] = test system: Schoenoplectiella juncoides; assay: Pre-emergence herbicidal activity against Schoenoplectiella juncoides at 500 g a.i/ha measured after 14 days; format: functional, organism-based
[12] = test system: Pontederia vaginalis; assay: Pre-emergence herbicidal activity against Monochoria vaginalis at 500 g a.i/ha measured after 14 days; format: functional, organism-based
[13] = test system: Cyperus difformis; assay: Pre-emergence herbicidal activity against Cyperus difformis at 500 g a.i/ha measured after 14 days; format: functional, organism-based
[14] = test system: Echinochloa oryzicola; assay: Pre-emergence herbicidal activity against Echinochloa oryzicola at 500 g a.i/ha measured after 14 days; format: functional, organism-based
[15] = test system: Lindernia procumbens; assay: Pre-emergence herbicidal activity against Lindernia procumbens assessed as bleaching of stem/leaf parts; format: functional, organism-based
[16] = test system: Pontederia vaginalis; assay: Pre-emergence herbicidal activity against Monochoria vaginalis assessed as bleaching of stem/leaf parts; format: functional, organism-based
[17] = test system: Schoenoplectiella juncoides; assay: Pre-emergence herbicidal activity against Schoenoplectiella juncoides assessed as bleaching of stem/leaf parts; format: functional, organism-based
[18] = test system: Cyperus difformis; assay: Pre-emergence herbicidal activity against Cyperus difformis assessed as bleaching of stem/leaf parts; format: functional, organism-based
[19] = test system: Echinochloa oryzicola; assay: Pre-emergence herbicidal activity against Echinochloa oryzicola assessed as bleaching of stem/leaf parts; format: functional, organism-based
[20] = test system: Cyperus difformis; assay: Post-emergence herbicidal activity against Cyperus difformis assessed as bleaching of stem/leaf parts; format: functional, organism-based; note: test concentration or dose not given here
[21] = test system: Pontederia vaginalis; assay: Post-emergence herbicidal activity against Monochoria vaginalis assessed as bleaching of stem/leaf parts; format: functional, organism-based
[22] = test system: Echinochloa oryzicola; assay: Post-emergence herbicidal activity against Echinochloa oryzicola assessed as bleaching of stem/leaf parts; format: functional, organism-based
[23] = test system: Ammannia multiflora; assay: Pre-emergence herbicidal activity against Ammannia multiflora assessed as bleaching of stem/leaf parts; format: functional, organism-based
[24] = test system: Elatine triandra; assay: Pre-emergence herbicidal activity against Elatine triandra assessed as bleaching of stem/leaf parts; format: functional, organism-based
[25] = test system: Rotala indica; assay: Pre-emergence herbicidal activity against Rotala indica assessed as bleaching of stem/leaf parts; format: functional, organism-based

CCCCNC(=O)c1cn(C)nc1Oc1cccc(C(F)(F)F)c1
Activity [1]: Active | Activity [2]: Active | Activity [3]: Active | Activity [4]: Active | Activity [5]: Active | Activity [6]: inactive | Activity [7]: inactive | Activity [8]: Non-toxic | Activity [9]: inactive | Activity [10]: inactive | Activity [11]: inactive | Activity [12]: inactive | Activity [13]: inactive | Activity [14]: inactive | Activity [15]: Active | Activity [16]: Active | Activity [17]: Active | Activity [18]: Active | Activity [19]: Active | Activity [20]: Active | Activity [21]: Active | Activity [22]: Active | Activity [23]: Active | Activity [24]: Active | Activity [25]: Active

CCCN(CC)C(=O)c1cn(C)nc1Oc1cccc(C(F)(F)F)c1
Activity [1]: Active | Activity [2]: Active | Activity [3]: Active | Activity [4]: Active | Activity [5]: Active | Activity [6]: inactive | Activity [7]: inactive | Activity [8]: Non-toxic | Activity [9]: inactive | Activity [10]: inactive | Activity [11]: inactive | Activity [12]: inactive | Activity [13]: inactive | Activity [14]: inactive | Activity [15]: Active | Activity [16]: Active | Activity [17]: Active | Activity [18]: Active | Activity [19]: Active | Activity [20]: Active | Activity [21]: Active | Activity [22]: Active | Activity [23]: Active | Activity [24]: Active | Activity [25]: Active

Cn1cc(NC(=O)c2ccc(F)cc2F)c(Oc2cccc(C(F)(F)F)c2)n1
Activity [1]: Active | Activity [2]: Active | Activity [3]: Active | Activity [4]: Active | Activity [5]: Active | Activity [6]: inactive | Activity [7]: inactive | Activity [8]: Non-toxic | Activity [9]: inactive | Activity [10]: inactive | Activity [11]: inactive | Activity [12]: inactive | Activity [13]: inactive | Activity [14]: inactive | Activity [15]: Active | Activity [16]: Active | Activity [17]: Active | Activity [18]: Active | Activity [19]: Active | Activity [20]: Active | Activity [21]: Active | Activity [22]: Active | Activity [23]: Active | Activity [24]: Active | Activity [25]: Active

C#CCNC(=O)c1cn(C)nc1Oc1cccc(C(F)(F)F)c1
Activity [1]: Active | Activity [2]: Active | Activity [3]: Active | Activity [4]: Active | Activity [5]: Active | Activity [6]: inactive | Activity [7]: inactive | Activity [8]: Non-toxic | Activity [9]: inactive | Activity [10]: inactive | Activity [11]: inactive | Activity [12]: inactive | Activity [13]: inactive | Activity [14]: inactive | Activity [15]: Active | Activity [16]: Active | Activity [17]: Active | Activity [18]: Active | Activity [19]: Active | Activity [20]: Active | Activity [21]: Active | Activity [22]: Active | Activity [23]: Active | Activity [24]: Active | Activity [25]: Active

— ChEMBL document CHEMBL3046607, “Synthesis and Herbicidal Activity of New 1-Alkyl-3-aryloxypyrazole-4-carboxamide Derivatives” (J Pestic Sci, 2004)
